Experimental data reported in the supplement of paper PMC11208160.

Experiment: recombinant UMI read abundance after kanamycin selection (control-corrected) (log10(CPM+1)); higher = more efficient recombination; extreme values may be limits of the assay; sequences stand for … in AGTGCAGAGAAAATCGGCCAGTTTTCTCTGCCTGCAGTCCGCATGCCGTGGGACCCCTTGGGTTCTAACCTGTTGCCTAGATTTATGCAGCGGACTGCCTTTCTCCCAAAGTGATAAACCGG…AGGTTGGTTTCACT; site = the 11-nt donor
Method in brief: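 Reported values are log10(CPM+1) from a pooled Escherichia coli screen of donor and donor-binding-loop pairs for the IS621 bridge recombinase. Selection used IPTG (0.07 mM) plus kanamycin, against unselected plating, each in two replicates. Recombinant UMIs were amplified across the donor–target junction, sequenced, converted to CPM, averaged over replicates and scaled by control-derived factors.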
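Note: IS621 bridge recombinase in Escherichia coli cells against a fixed T5 target plasmid.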

Sequence | recombinant UMI read abundance (log10)
GCTAATACATGGACCGGTTTTCCCGGTAATCCGTATTTGGC (site TCTAATACTGC) | 0.548
GCTACAACATGGACCGGTTTTCCCGGTAATCCGTATTTGAG (site GCTACAACTCT) | 0.921
GCTACGCCATGGACCGGTTTTCCCGGTAATCCGTATTTGCG (site GCTACGCCTCG) | 0.00779
GCTACTGCATGGACCGGTTTTCCCGGTAATCCGTATTTGAG (site GCTACTGCTCT) | 1.49
GCTACTGCATGGACCGGTTTTCCCGGTAATCCGTATTTGCC (site ACTACTGCTGG) | 1.44
GCTACTGCATGGACCGGTTTTCCCGGTAATCCGTATTTGCC (site CCTACTGCTGG) | 0.983
GCTACTGCATGGACCGGTTTTCCCGGTAATCCGTATTTGCC (site GATACTGCTGG) | 0
GCTACTGCATGGACCGGTTTTCCCGGTAATCCGTATTTGCC (site GCAACTGCTGG) | 0
GCTACTGCATGGACCGGTTTTCCCGGTAATCCGTATTTGCC (site GCCACTGCTGG) | 0.445
GCTACTGCATGGACCGGTTTTCCCGGTAATCCGTATTTGCC (site GCGACTGCTGG) | 0
GCTACTGCATGGACCGGTTTTCCCGGTAATCCGTATTTGCC (site GCTAATGCTGG) | 0
GCTACTGCATGGACCGGTTTTCCCGGTAATCCGTATTTGCC (site GCTACAGCTGG) | 0
GCTACTGCATGGACCGGTTTTCCCGGTAATCCGTATTTGCC (site GCTACCGCTGG) | 0
GCTACTGCATGGACCGGTTTTCCCGGTAATCCGTATTTGCC (site GCTACGGCTGG) | 0
GCTACTGCATGGACCGGTTTTCCCGGTAATCCGTATTTGCC (site GCTACTACTGG) | 1.21
GCTACTGCATGGACCGGTTTTCCCGGTAATCCGTATTTGCC (site GCTACTCCTGG) | 0
GCTACTGCATGGACCGGTTTTCCCGGTAATCCGTATTTGCC (site GCTACTGCTAG) | 0.00694
GCTACTGCATGGACCGGTTTTCCCGGTAATCCGTATTTGCC (site GCTACTGCTCG) | 0
GCTACTGCATGGACCGGTTTTCCCGGTAATCCGTATTTGCC (site GCTACTGCTGA) | 0
GCTACTGCATGGACCGGTTTTCCCGGTAATCCGTATTTGCC (site GCTACTGCTGC) | 0
GCTACTGCATGGACCGGTTTTCCCGGTAATCCGTATTTGCC (site GCTACTGCTGG) | 1.11
GCTACTGCATGGACCGGTTTTCCCGGTAATCCGTATTTGCC (site GCTACTGCTGT) | 0
GCTACTGCATGGACCGGTTTTCCCGGTAATCCGTATTTGCC (site GCTACTGCTTG) | 0.255
GCTACTGCATGGACCGGTTTTCCCGGTAATCCGTATTTGCC (site GCTACTTCTGG) | 0
GCTACTGCATGGACCGGTTTTCCCGGTAATCCGTATTTGCC (site GCTAGTGCTGG) | 0
GCTACTGCATGGACCGGTTTTCCCGGTAATCCGTATTTGCC (site GCTATTGCTGG) | 0

Sequence | recombinant UMI read abundance (log10)
GCTACTGCATGGACCGGTTTTCCCGGTAATCCGTATTTGCC (site GCTCCTGCTGG) | 0
GCTACTGCATGGACCGGTTTTCCCGGTAATCCGTATTTGCC (site GCTGCTGCTGG) | 0.274
GCTACTGCATGGACCGGTTTTCCCGGTAATCCGTATTTGCC (site GCTTCTGCTGG) | 0.74
GCTACTGCATGGACCGGTTTTCCCGGTAATCCGTATTTGCC (site GGTACTGCTGG) | 1.03
GCTACTGCATGGACCGGTTTTCCCGGTAATCCGTATTTGCC (site GTTACTGCTGG) | 0.815
GCTACTGCATGGACCGGTTTTCCCGGTAATCCGTATTTGCC (site TCTACTGCTGG) | 0.424
GCTAGCCCATGGACCGGTTTTCCCGGTAATCCGTATTTGAT (site GCTAGCCCTAT) | 0.197
GCTAGCCCATGGACCGGTTTTCCCGGTAATCCGTATTTGAT (site GCTCGCCCTAT) | 0.0134
GCTAGCCCATGGACCGGTTTTCCCGGTAATCCGTATTTGAT (site GCTGGCCCTAT) | 0.00566
GCTAGCCCATGGACCGGTTTTCCCGGTAATCCGTATTTGAT (site GCTTGCCCTAT) | 0.00951
GCTCAGGCATGGACCGGTTTTCCCGGTAATCCGTATTTGTA (site GCTCAGGCTTA) | 1.71
GCTCGAGCATGGACCGGTTTTCCCGGTAATCCGTATTTGCA (site GATCGAGCTTG) | 0.25
GCTCGAGCATGGACCGGTTTTCCCGGTAATCCGTATTTGCA (site GCTCGAGCTTG) | 2.67
GCTCGAGCATGGACCGGTTTTCCCGGTAATCCGTATTTGCA (site GGTCGAGCTTG) | 0.679
GCTCGAGCATGGACCGGTTTTCCCGGTAATCCGTATTTGCA (site GTTCGAGCTTG) | 0.655
GCTCGATCATGGACCGGTTTTCCCGGTAATCCGTATTTGCA (site GCTCGATCTTG) | 2.07
GCTCGCGCATGGACCGGTTTTCCCGGTAATCCGTATTTGGT (site GCTCGCGCTAC) | 0.984
GCTCGGGCATGGACCGGTTTTCCCGGTAATCCGTATTTGAG (site GCTCGGGCTCT) | 0.866
GCTCTAGCATGGACCGGTTTTCCCGGTAATCCGTATTTGAC (site GCTCTAGCTGT) | 1.67
GCTCTCGCATGGACCGGTTTTCCCGGTAATCCGTATTTGTT (site GCTCTCGCTAA) | 0.534
GCTGAACCATGGACCGGTTTTCCCGGTAATCCGTATTTGTC (site GCTGAACCTGA) | 0
GCTGCGTCATGGACCGGTTTTCCCGGTAATCCGTATTTGGT (site GCTGCGTCTAC) | 0.732
GCTGCTCCATGGACCGGTTTTCCCGGTAATCCGTATTTGCT (site GCTGCTCCTAG) | 0.276
GCTGCTGCATGGACCGGTTTTCCCGGTAATCCGTATTTGCC (site GCTACTGCTGG) | 0.315
GCTGCTGCATGGACCGGTTTTCCCGGTAATCCGTATTTGCC (site GCTCCTGCTGG) | 0
GCTGCTGCATGGACCGGTTTTCCCGGTAATCCGTATTTGCC (site GCTGCTGCTGG) | 1.18
